These results are taken from ChEMBL document CHEMBL1133670 (J Med Chem, 2000).

For series [1], the target named is Protein farnesyltransferase (Homo sapiens, UniProt P49354+P49356). Nature of the series: Inhibition of purified recombinant human farnesyltransferase (FT).
In a further series the test system is NIH3T3. Nature of the series: cells. The conditions noted are these: Mus musculus.
Series [2] deals with T1, Protein farnesyltransferase (Rattus norvegicus) (UniProt Q04631+Q02293). Nature of the series: Percent phenotypic reversion of H-ras transformed Rat-1 cells at 10 uM. In kind it is functional, cell-based.
Series [3] concerns the target T1, Protein farnesyltransferase (Rattus norvegicus). In words: Percent phenotypic reversion of H-ras transformed Rat-1 cells at 1 uM. The class given is functional, cell-based.
Series [4] has as its system Mus musculus. Nature of the series: In vivo antitumor activity (log cell kill, LCK) by subcutaneous implantation of HCT116 tumors followed by oral administration at an optimal dose of 600 mg/kg in expt. 3. The class given is functional.
Series [5] concerns Mus musculus. In words: In vivo antitumor activity (log cell kill, LCK) by subcutaneous implantation of HCT116 tumors followed by oral administration at an optimal dose of 600 mg/kg in expt. 2. The class given is functional.
Series [6] relates to Mus musculus. In words: In vivo antitumor activity (log cell kill, LCK) by subcutaneous implantation of HCT116 tumors followed by oral administration at an optimal dose of 600 mg/kg in mice.
A short description of series [7]: in vivo. The conditions noted are these: rat, po, 50 mg/kg.
Description: Oral bioavailability observed in rats at an oral dose of 50 mg/kg
Series [8] is described as follows: Half-life of compound in rats following intravenous dose of 50 mg/kg. The following applies: rat, in vivo.
Series [9] in a line: Maximum concentration observed in rats at an oral dose of 50 mg/kg. The following applies: rat, in vivo.
A short description of series [10]: in vivo. The conditions noted are these: rat, iv, 50 mg/kg.
Description: Volume of distribution (Vss) in rats following intravenous dose of 50 mg/kg
Series [11] can be described thus: Clearance in rats following intravenous dose of 50 mg/kg. The conditions noted are these: rat, in vivo.
The species entered for series [12] is Mus musculus. Nature of the series: Increase in lifespan reflected by relative median survival time of treated versus control groups expressed as maximum % T/C. In kind it is functional.
Series [13] has as its target T1, Protein farnesyltransferase (Rattus norvegicus). In words: Percent phenotypic reversion of H-ras transformed Rat-1 cells at 5 uM. The class given is functional, cell-based.
Series [14] concerns Mus musculus. In words: In vivo antitumor activity (log cell kill, LCK) by subcutaneous implantation of HCT116 tumors followed by oral administration at an optimal dose of 600 mg/kg in expt. 5. In kind it is functional.
Series [15] can be described thus: Half-life of compound in Balb/c mice following an oral dose of 90 mg/kg. The conditions noted are these: Balb/c mouse, in vivo.
Series [16] in a line: Oral bioavailability, based on dose-normalized AUC values in BALB/c mice. The class given is ADME, organism-based. The conditions noted are these: mouse, in vivo.
Series [17] relates to Mus musculus. Nature of the series: In vivo antitumor activity (log cell kill, LCK) by subcutaneous implantation of HCT116 tumors followed by oral administration at an optimal dose of 600 mg/kg in expt. 4. In kind it is functional.
Series [18] concerns Mus musculus. Nature of the series: In vivo antitumor activity (log cell kill, LCK) by subcutaneous implantation of HCT116 tumors followed by oral administration at an optimal dose of 700 mg/kg in expt. 1. In kind it is functional.

Molecules are shown by their SMILES. pEC50, pIC50: −log10 of the molar value.

Description for NIH3T3: Inhibition of anchorage independent growth of H-ras transformed NIH3T3 cells in Soft Agar

Take `CS(=O)(=O)N1Cc2cc(-c3cccnc3)ccc2N(Cc2cnc[nH]2)CC1Cc1ccccc1` (stereo not given): in series [1], the pIC50 (in general, the negative decadic logarithm of the IC50, by convention in mol/L) is 8.10.
For the compound `CS(=O)(=O)N1Cc2cc(-c3ccccc3)ccc2N(Cc2cnc[nH]2)C[C@H]1Cc1ccncc1`, in series [1], the pIC50 is 6.42.
For `O=C(c1cccc2ccccc12)N1CCN(Cc2cnc[nH]2)c2ccc(Br)cc2C1`, the negative-log IC50 (pIC50) in series [1] is 6.64.
On the same count and under the same terms, the same measure for `CS(=O)(=O)N1Cc2cc(Br)ccc2N(Cc2cnc[nH]2)CC1Cc1ccccc1` (stereo not given): 7.52.
Take `CC(=O)N1Cc2cc(C#N)ccc2N(Cc2c[nH]cn2)C[C@H]1Cc1ccccc1`: in series [1], the pIC50 was 8.06. Moreover, in the series with NIH3T3, the pEC50 (in general, the EC50 on a negative log10 scale, so that one unit is a factor of ten) was 7.00.
Turning to `CC1CN(Cc2c[nH]cn2)c2ccccc2CN1C(=O)c1cccc2ccccc12` (stereo not given), in [1], the pIC50 is 5.96. This compound also gave a Reversion in series [2] of 0%.
For the compound `CS(=O)(=O)N1Cc2cc(Br)ccc2N(Cc2c[nH]cn2)CC1Cc1ccccc1Cl` (stereo not given), the pIC50 in [1] is 7.74. The same compound gave a pEC50 with NIH3T3 of 6.34. In [3], this compound came in with a Reversion of 70%.
As to `CS(=O)(=O)N1Cc2cc(Br)ccc2N(Cc2c[nH]cn2)CC1Cc1cccc(Cl)c1` (stereo not given), the negative-log IC50 (pIC50) in series [1] was 7.62. This compound also gave a Reversion in series [2] of 70%.
For `CCCS(=O)(=O)N1Cc2cc(C#N)ccc2N(Cc2cnc[nH]2)C[C@H]1Cc1ccccc1`, the pIC50 in series [1] was 8.75. The compound also had a pEC50 in the series on NIH3T3 of 8.00.
Regarding `CS(=O)(=O)N1Cc2cc(Br)ccc2N(Cc2c[nH]cn2)CC1CCc1ccccc1` (stereo not given), in the series with NIH3T3, the pEC50 was 6.40. For the same compound, the Reversion in series [3] was 70%.
For the compound `CC(=O)N1Cc2cc(Br)ccc2N(Cc2cnc[nH]2)CC1Cc1cccc2ccccc12` (stereo not given), in series [1], the pIC50 is 7.26.
As to `N#Cc1ccc2c(c1)CN(S(=O)(=O)c1ccccc1)[C@H](Cc1ccccc1)CN2Cc1cnc[nH]1`, the pIC50 in series [1] is 8.75. Further, the pEC50 in the series with NIH3T3 is 8.00.
In the series on NIH3T3, `CS(=O)(=O)N1Cc2cc(-c3ccccc3)ccc2N(Cc2c[nH]cn2)CC1Cc1ccccc1` (stereo not given) had a pEC50 of 6.28. In [3], this compound registered a Reversion of 70%.
In the series on Mus musculus [4], `CS(=O)(=O)N1Cc2cc(C#N)ccc2N(Cc2c[nH]cn2)C[C@H]1Cc1ccccc1` registered an LCK of 0.6. The pIC50 in [1] was 8.52. The pEC50 with NIH3T3 is 7.89.
With `CS(=O)(=O)N1Cc2cc(-c3ccncc3)ccc2N(Cc2c[nH]cn2)C[C@H]1Cc1ccccc1`, in the series on Mus musculus [5], the LCK stood at 0.2. The pIC50 in series [1] is 7.80. In addition, in the series on NIH3T3, the pEC50 is 7.40.
Consider `CS(=O)(=O)N1Cc2cc(-c3cccnc3)ccc2N(Cc2c[nH]cn2)CC1Cc1ccccc1` (stereo not given), for which the Reversion in series [3] amounted to 10%.
For `CS(=O)(=O)N1Cc2cc(Br)ccc2N(Cc2cnc[nH]2)CC1CNC(=O)c1ccccc1` (stereo not given), the pIC50 in [1] is 7.07.
For `CN(C)C(=O)N1Cc2cc(C#N)ccc2N(Cc2c[nH]cn2)C[C@H]1Cc1ccccc1`, in series [1], the pIC50 is 7.77. In [3], the Reversion was 40%.
In the case of `O=C(c1cccc2ccccc12)N1CCN(Cc2c[nH]cn2)c2ccccc2C1`, the Reversion in series [2] is 0%.
In the case of `CS(=O)(=O)N1Cc2cc(Br)ccc2N(Cc2cnc[nH]2)C[C@@H]1Cc1ccccc1`, the negative-log IC50 (pIC50) in [1] is 6.36.
On to `CS(=O)(=O)N1Cc2cc(-c3ccccc3)ccc2N(Cc2c[nH]cn2)C[C@H]1Cc1cccnc1`, for which the LCK in the series on Mus musculus [6] turned out to be 0.1. Also, the pIC50 in series [1] was 8.23. This compound also had a pEC50 in the series with NIH3T3 of 7.82.
In the case of `O=C(c1cccc2ccccc12)N1Cc2ccccc2N(Cc2c[nH]cn2)CC1Cc1ccccc1` (stereo not given), the pIC50 in series [1] was 6.56. This compound also displayed a Reversion in series [2] of 70%.
On to `CS(=O)(=O)N1Cc2cc(Br)ccc2N(Cc2cnc[nH]2)CC1CCc1ccccc1` (stereo not given), for which the pIC50 in series [1] was 7.35.
On to `N#Cc1ccc2c(c1)CN(S(=O)(=O)c1cccs1)[C@H](Cc1ccccc1)CN2Cc1cnc[nH]1` [BMS-214662], for which the bioavailability (usually the share of a dose that reaches the circulation, judged against a reference dose that is usually intravenous) in “in vivo [7]” worked out at 56%. Also, the half-life (usually the time needed for the level to fall by half in the phase considered) in series [8] is 2.4 h. For the same compound, in series [9], the Cmax (as a rule, the maximum level reached in the sampled fluid or tissue) worked out at 20 µM. Besides, the volume of distribution (Vd) (commonly a proportionality between amount in the body and measured concentration, not a real space) in the series “in vivo [10]” was determined as 1.4 L/kg. For the same compound, the clearance (usually the volume of plasma or blood freed of the substance per unit of time) in [11] is 5.7 mL/min/kg.
As to `CS(=O)(=O)N1Cc2cc(Br)ccc2N(Cc2c[nH]cn2)CC1Cc1ccccc1` (stereo not given), the T/C – broadly, the result in the treated group divided by that in the control group, in per cent – in the series listed under Mus musculus [12] was 138%. Further, the pEC50 with NIH3T3 is 6.57. Besides, the Reversion in [3] stood at 80%.
Consider `CC(=O)N1Cc2cc(Br)ccc2N(Cc2c[nH]cn2)CC1Cc1ccccc1` (stereo not given), for which the negative-log IC50 (pIC50) in series [1] was 7.22. Also, the pEC50 with NIH3T3 was 6.22. Moreover, the Reversion in series [3] was 30%.
In series [13], `O=C(c1cccc2ccccc12)N1CCN(Cc2c[nH]cn2)c2ccc(Br)cc2C1` registered a Reversion of 5%.
In turn, `CN(C)CCS(=O)(=O)N1Cc2cc(C#N)ccc2N(Cc2c[nH]cn2)C[C@H]1Cc1ccccc1` showed an LCK in the series on Mus musculus [14] of 1. The pIC50 in series [1] was 8.82. In the series with NIH3T3, the pEC50 is 7.52.
On to `CS(=O)(=O)N1Cc2cc(Br)ccc2N(Cc2cnc[nH]2)C[C@H]1Cc1ccccc1`, for which the pIC50 in series [1] is 7.97. The compound further showed a half-life in series [15] of 1.2 h. This compound also displayed a bioavailability in series [16] of 40%.
Take `CN(C)S(=O)(=O)N1Cc2cc(C#N)ccc2N(Cc2c[nH]cn2)C[C@H]1Cc1ccccc1`: the LCK in the series with Mus musculus [17] is reported as 0.2. In [1], the pIC50 is 8.55. In the series with NIH3T3, the pEC50 was 7.30.
On to `CC(=O)N1Cc2ccccc2N(Cc2c[nH]cn2)CC1Cc1ccccc1` (stereo not given), for which the pIC50 in [1] was 5.89.
Regarding `CS(=O)(=O)N1Cc2cc(Br)ccc2N(Cc2c[nH]cn2)CC1CNC(=O)c1ccccc1` (stereo not given), the Reversion in [3] is 0%.
For the compound `COc1ccc(CC2CN(Cc3c[nH]cn3)c3ccc(Br)cc3CN2S(C)(=O)=O)cc1` (stereo not given), in series [1], the negative-log IC50 (pIC50) is 7.00. Besides, the Reversion in [3] was 0%.
For the compound `CS(=O)(=O)N1Cc2cc(-c3ccccc3)ccc2N(Cc2cnc[nH]2)CC1Cc1ccccc1` (stereo not given), the pIC50 in series [1] was 7.26.
As to `CS(=O)(=O)N1Cc2cc(Br)ccc2N(Cc2c[nH]cn2)C[C@H]1CC1CCCCC1`, the Reversion in series [2] was 90%.
With `CS(=O)(=O)N1Cc2cc(Br)ccc2N(Cc2c[nH]cn2)C[C@H]1Cc1ccccc1`, the pEC50 in the series on NIH3T3 is 6.54. Also, the LCK with Mus musculus [18] stood at 1.5. For the same compound, in series [3], the Reversion was found to be 70%.
For the compound `CC(=O)N1Cc2cc(Br)ccc2N(Cc2c[nH]cn2)CC1Cc1cccc2ccccc12` (stereo not given), the Reversion in [3] came out at 5%.
As to `CS(=O)(=O)N1Cc2cc(Br)ccc2N(Cc2cnc[nH]2)C[C@H]1CC1CCCCC1`, the pIC50 in series [1] was 7.63.
As to `CCOC(=O)N1Cc2cc(C#N)ccc2N(Cc2c[nH]cn2)C[C@H]1Cc1ccccc1`, in [1], the pIC50 is 7.66. Also, the pEC50 with NIH3T3 was 6.52. Further, the Reversion in series [3] amounted to 50%.
